Measurements published in PMC4448209 (Journal of Neuroinflammation, 2015).
“Also recorded” adds a separate entry of the source.

What was measured:
Aβ-specific antibodies [1] = assay: Anti-Aβ antibody ELISA, HLA-A2.1/HLA-DR1 mice; format: in vivo, mouse; conditions: Aβ1-42-coated plates, relative OD
Description: (§1) To measure serum anti-Aβ antibody titers in immunized mice, flat-bottom Nunc MaxiSorp ELISA plates were coated overnight at 4 °C with Aβ1-42 peptide (1 μg/ml in 0.1 M NaHCO3, pH 8.3). Plates were then washed twice with PBS-T and blocked with PBS-1 % BSA for 2 h at room temperature (RT). After two washes, plates were incubated for 2 h at RT with serum samples at various dilutions in blocking buffer. The Aβ1-17-specific mAb 6E10 (0.01 and 1 μg/ml) (Sigma-Aldrich, St Quentin Fallavier, France) was used as a positive internal reference sample. […] Results were expressed as relative OD = Experimental OD/Reference OD for 6E10 mAb in the same plate.

Aβ-specific antibodies [2] = assay: Anti-Aβ antibody ELISA, C57BL/6 mice; format: in vivo, mouse
Description: as §1

AD patients [3] = conditions: cited from earlier work
Text: (§2) Alzheimer’s disease (AD) is a severe neurodegenerative disorder characterized by progressive loss of memory and cognitive functions. Accumulation of amyloid-β peptide (Aβ), both as soluble oligomers and in the form of amyloid plaques, plays a key role in initiating the pathogenic cascade in AD. […] In line with ...

animal models of AD = conditions: vaccination; cited from earlier work
Text: as §2

[4] = test system: IFNγ-secreting splenocytes; conditions: HLA-A2.1/HLA-DR1 mice, Aβ/CpG/IFA; dendritic cells loaded with Aβ or overlapping nonamer peptides; data not shown
[5] = Hydrophobicity and solubility remark from peptide synthesis; format: physicochemical; conditions: likely reason why the 15-mer could not be productively synthetized
[6] = test system: IFNγ-secreting splenocytes; assay: IFNγ ELISPOT, splenocytes of immunized C57BL/6 mice; format: in vivo, mouse
1C11 neuronal cells = assay: IFNγ ELISPOT, restimulation with 1C11 neuronal cells; conditions: inferred from 1C11 cells and APPPS1 CD11b^+ microglia
Description: Nitrocellulose-based 96-well plates (Millipore, Billerica, MA, USA) were coated with anti-mouse IFN-γ capture mAb (1 μg/ml; clone R4-6A2, BD Biosciences) and saturated with complete culture medium. Responder splenocytes from individual mice were seeded at 10^6 or 5 × 10^5 cells/wells and cultured with medium alone or containing 10 μg/ml of peptide. In some experiments, splenocytes were stimulated with CD11b^+ microglia (3 × 10^4/wells) isolated from the brain of WT or APPPS1 mice, or with mitomycin-treated 1C11 cells (2 × 10^4/wells), a neuronal cell line expressing both APP and H-2^b MHC-I but not MHC-II molecules [25, 26]. Plates were incubated at 37 °C in 5 % CO2 for 18 h, washed, and incubated with biotinylated anti-mouse IFNγ detection mAb (0.5 μ/ml; clone XMG1.2, BD Biosciences). Alkaline phosphatase conjugated to streptavidin (Roche, France) (1/500 dilution, 100 μL/well) was then added. IFNγ-secreting cells were visualized using TNB/BCIP substrate (Promega, Charbonnières, France), and spots were counted using an automatic ELISPOT plate reader. Samples were assayed in triplicate, and the frequency of peptide-specific T cells was calculated after subtracting the mean number of spots obtained in the absence of peptide or cells.

AD patients [7] = conditions: phase 3 studies released summer 2012; 10 (bapineuzumab), 11 (solanezumab); cited from earlier work

Aβ1-42: Human Aβ1-42 peptide
Aβ-specific antibodies in serum (Aβ-specific antibodies [1]): Aβ-specific antibodies were detected | anti-Aβ antibody isotypes (Aβ-specific antibodies [2]): predominantly of IgG1 and IgG2b isotypes | beneficial effects in AD patients (AD patients [3]; AN1792): modest beneficial effects | patients developing meningoencephalitis (AD patients [3]; human, in vivo): 6% | benefit in animal models of AD (animal models of AD): of benefit in animal models of AD | CD8^+ T cell response [4]: did not trigger any CD8^+ T cells able to recognize dendritic cells loaded with either Aβ or overlapping nonamer peptides

Aβ28-42: 15-mer candidate peptide, could not be productively synthetized (KGAIIGLMVGGVVIA; Amyloid-beta protein 42; UniProt P05067 699-713, looked up, fragment)
hydrophobicity [5]: very high hydrophobicity | solubility [5]: poor solubility

GLMVGGVVI [Aβ33-41]
restimulation of Aβ33-41NP-specific CD8^+ T cells by exogenously loaded native peptide [6]: could not restimulate Aβ33-41NP-specific CD8^+ T cells when loaded exogenously | natural processing and presentation by microglia and neuronal cells (1C11 neuronal cells): can be naturally processed and presented in both microglia and neuronal cells; also recorded: appears to be naturally processed and presented to immune effectors

solanezumab: humanized anti-Aβ monoclonal antibody
improvement of cognitive performance (AD patients [7]): inefficient at improving cognitive performance
